From patent publication US8669249B2, “Poly (ADP-ribose) polymerase (PARP) inhibitors” (Takeda Pharmaceutical Company Limited, priority 2009, dated 2014)
pIC50: −log10 of the molar value.

Columns and labels:
PARP = target: T1, PARP (Homo sapiens, UniProt P09874); assay: PARP ELISA (ELISA-based colorimetric PARP/Apoptosis Assay kit, Trevigen); assay type: biochemical; settings: pIC50=-log10 IC50, IC50 in mol/L; inhibition of PARP catalytic activity
T1 construct: purchased Trevigen 4684-096-K HT (kit); 4684-096-01 (PARP enzyme)
In short: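 Quenched after 10 min catalysis by aspiration and four PBS/0.1% Triton X-100 washes. Poly(ADP-ribose) detected with mouse anti-PAR monoclonal antibody, goat anti-mouse IgG-HRP and HRP substrate; colorimetric signal proportional to PARP catalytic activity.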

Jurkat cell line = assay: PARP cellular chemopotentiation assay (MTS, with/without TMZ); assay type: cell-based; settings: Chemopotentiation factor: ratio of EC50 values of Jurkat cells co-treated without and with 100 μM TMZ; 96 hours
In short: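 Jurkat cells, 10,000/well, pre-cultured 24 h, then treated 96 h with serial compound dilutions (0.5% DMSO) with or without 100 μM TMZ. Viability by MTS conversion (OD490), normalized to DMSO controls; EC50 from curve fits, PF50 = EC50 without TMZ / EC50 with TMZ.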

[1] = target: T2, catalytic domain of Human PARP (Homo sapiens, UniProt P09874); assay: Biacore surface plasmon resonance affinity assay; assay type: binding; settings: pKD=-log10 KD, KD in mol/L; Biacore T100, 25° C.; read-out: pKD (converted)
T2 construct: The catalytic domain of Human PARP was cloned and prepared; made in house
In short: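 Binding at 25° C on Biacore T100: 1 min compound association then 5 min dissociation (50 μL/min) over immobilized PARP catalytic domain, buffer HBS-P plus 1% DMSO, 0.5 mM TCEP, 5 mM MgCl2, 2-fold dilution series. KD derived as koff/kon from fitted association and dissociation phases.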

T2 sequence (P09874 788-1014 limits assumed): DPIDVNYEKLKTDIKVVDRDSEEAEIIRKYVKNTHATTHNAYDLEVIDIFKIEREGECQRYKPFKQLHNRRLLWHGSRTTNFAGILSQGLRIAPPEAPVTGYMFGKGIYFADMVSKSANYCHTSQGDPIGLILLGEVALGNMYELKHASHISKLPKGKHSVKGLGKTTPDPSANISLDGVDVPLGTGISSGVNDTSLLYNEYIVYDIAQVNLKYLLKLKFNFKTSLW
T1 sequence (P09874 whole entry): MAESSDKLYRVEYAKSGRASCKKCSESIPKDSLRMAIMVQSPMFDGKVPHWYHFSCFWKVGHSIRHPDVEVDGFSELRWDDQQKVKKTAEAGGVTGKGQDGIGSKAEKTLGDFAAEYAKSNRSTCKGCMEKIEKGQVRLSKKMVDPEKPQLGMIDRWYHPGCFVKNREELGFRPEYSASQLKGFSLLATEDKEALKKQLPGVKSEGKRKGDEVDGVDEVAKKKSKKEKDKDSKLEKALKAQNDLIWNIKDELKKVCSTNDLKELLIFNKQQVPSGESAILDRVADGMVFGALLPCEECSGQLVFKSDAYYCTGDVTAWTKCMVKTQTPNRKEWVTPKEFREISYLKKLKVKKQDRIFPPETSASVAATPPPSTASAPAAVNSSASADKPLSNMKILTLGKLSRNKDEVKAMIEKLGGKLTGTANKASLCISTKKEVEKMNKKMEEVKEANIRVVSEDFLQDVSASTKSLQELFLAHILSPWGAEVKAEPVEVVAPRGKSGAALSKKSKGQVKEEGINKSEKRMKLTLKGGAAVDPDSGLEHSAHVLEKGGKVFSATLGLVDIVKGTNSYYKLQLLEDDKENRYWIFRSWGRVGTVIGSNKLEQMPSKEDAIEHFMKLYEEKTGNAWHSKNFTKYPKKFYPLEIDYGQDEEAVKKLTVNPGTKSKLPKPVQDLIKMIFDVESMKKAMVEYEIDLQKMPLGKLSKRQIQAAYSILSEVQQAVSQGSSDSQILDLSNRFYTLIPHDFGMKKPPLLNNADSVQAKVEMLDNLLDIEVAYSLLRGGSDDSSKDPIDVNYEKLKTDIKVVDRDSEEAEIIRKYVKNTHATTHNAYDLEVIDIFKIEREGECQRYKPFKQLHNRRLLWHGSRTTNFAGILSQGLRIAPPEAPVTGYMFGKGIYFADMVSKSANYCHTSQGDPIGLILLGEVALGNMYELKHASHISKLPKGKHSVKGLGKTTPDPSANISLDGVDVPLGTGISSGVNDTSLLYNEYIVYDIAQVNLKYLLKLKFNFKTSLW

Row | pIC50 (PARP) | Kd [1] [nM] | Compound | PF50 (Jurkat cell line)
1 | ≥ 7.50 | < 31.6 | CCNC(=O)c1ccc(N2CCN(Cc3cc4c(c(OC)c3)OC(C)C(=O)N4)CC2)cc1 (stereo not drawn) [Compound 162, N-Ethyl-4-(4-((8-methoxy-2-methyl-3-oxo-3,4-dihydro-2H-benzo[b][1,4]oxazin-6-yl)methyl)piperazin-1-yl)benzamide] | 2.0-9.9
2 | ≥ 7.50 | < 31.6 | COc1cc(CN2CCN(c3ccc(C(=O)NC4CC4)cc3)CC2)cc2c1OC(C)C(=O)N2 (stereo not drawn) [Compound 163, N-Cyclopropyl-4-(4-((8-methoxy-2-methyl-3-oxo-3,4-dihydro-2H-benzo[b][1,4]oxazin-6-yl)methyl)piperazin-1-yl)benzamide] | ≧10.0
3 | ≥ 7.50 | < 31.6 | COc1cc(CN2CCN(c3ccc(C(=O)NC(C)C)cc3)CC2)cc2c1OC(C)C(=O)N2 (stereo not drawn) [Compound 164, N-Isopropyl-4-(4-((8-methoxy-2-methyl-3-oxo-3,4-dihydro-2H-benzo[b][1,4]oxazin-6-yl)methyl)piperazin-1-yl)benzamide] | ≧10.0
4 | ≤ 6.90 | ≤ 10 | CCC1Oc2ccc(CN3CCN(c4ccccc4O)CC3)cc2NC1=O (stereo not drawn) [Compound 197, 2-Ethyl-6-((4-(2-hydroxyphenyl)piperazin-1-yl)methyl)-2H-benzo[b][1,4]oxazin-3(4H)-one] | 1.0-1.9
5 | 7.00 to 7.40 | ≤ 10 | COC(=O)c1ccc(C2CCN(Cc3ccc4c(c3)NC(=O)C(C)O4)CC2)cc1 (stereo not drawn) [Compound 214, Methyl 4-(1-((2-methyl-3-oxo-3,4-dihydro-2H-benzo[b][1,4]oxazin-6-yl)methyl)piperidin-4-yl)benzoate] | ≦0.9
6 | ≤ 6.90 | ≤ 10 | CCOC(=O)c1ccc(N2CCN(Cc3ccc4c(c3)NC(=O)C(C)O4)CC2)cc1 (stereo not drawn) [Compound 217, Ethyl 4-(4-((2-methyl-3-oxo-3,4-dihydro-2H-benzo[b][1,4]oxazin-6-yl)methyl)piperazin-1-yl)benzoate] | ≦0.9
7 | ≥ 7.50 | ≤ 10 | CC1Oc2ccc(CN3CCN(c4ccc(C#N)cc4)CC3)cc2NC1=O (stereo not drawn) [Compound 219, 4-(4-((2-methyl-3-oxo-3,4-dihydro-2H-benzo[b][1,4]oxazin-6-yl)methyl)piperazin-1-yl)benzonitrile] | ≦0.9
8 | 7.00 to 7.40 | ≤ 10 | COC(=O)c1ccc(N2CCN(Cc3ccc4c(c3)NC(=O)C(C)O4)CC2)cc1 (stereo not drawn) [Compound 220, Methyl 4-(4-((2-methyl-3-oxo-3,4-dihydro-2H-benzo[b][1,4]oxazin-6-yl)methyl)piperazin-1-yl)benzoate] | 1.0-1.9
9 | ≤ 6.90 | 12.6 to 100 | CC1Oc2ccc(CN3CCN(c4ccc(C(F)(F)F)cc4)CC3)cc2NC1=O (stereo not drawn) [Compound 222, 2-Methyl-6-((4-(4-(trifluoromethyl)phenyl)piperazin-1-yl)methyl)-2H-benzo[b][1,4]oxazin-3(4H)-one] | 1.0-1.9
10 | ≥ 7.50 | ≤ 10 | CNC(=O)c1ccc(N2CCN(Cc3ccc4c(c3)NC(=O)C(C)O4)CC2)cc1 (stereo not drawn) [Compound 223, N-Methyl-4-(4-((2-methyl-3-oxo-3,4-dihydro-2H-benzo[b][1,4]oxazin-6-yl)methyl)piperazin-1-yl)benzamide] | ≦0.9
11 | ≥ 7.50 | ≤ 10 | CCNC(=O)c1ccc(N2CCN(Cc3ccc4c(c3)NC(=O)C(C)O4)CC2)cc1 (stereo not drawn) [Compound 224, N-Ethyl-4-(4-((2-methyl-3-oxo-3,4-dihydro-2H-benzo[b][1,4]oxazin-6-yl)methyl)piperazin-1-yl)benzamide] | 2.0-9.9
12 | ≥ 7.50 | ≤ 10 | CC(C)NC(=O)c1ccc(N2CCN(Cc3ccc4c(c3)NC(=O)C(C)O4)CC2)cc1 (stereo not drawn) [Compound 225, N-Isopropyl-4-(4-((2-methyl-3-oxo-3,4-dihydro-2H-benzo[b][1,4]oxazin-6-yl)methyl)piperazin-1-yl)benzamide] | ≦0.9
13 | ≥ 7.50 | ≤ 10 | CC1Oc2ccc(CN3CCN(c4ccc(C#N)cn4)CC3)cc2NC1=O (stereo not drawn) [Compound 231, 6-(4-((2-Methyl-3-oxo-3,4-dihydro-2H-benzo[b][1,4]oxazin-6-yl)methyl)piperazin-1-yl)nicotinonitrile] | 1.0-1.9
14 | 7.00 to 7.40 | ≤ 10 | COC(=O)c1ccc(N2CCN(Cc3ccc4c(c3)NC(=O)C(C)O4)CC2)nc1 (stereo not drawn) [Compound 232, Methyl 6-(4-((2-methyl-3-oxo-3,4-dihydro-2H-benzo[b][1,4]oxazin-6-yl)methyl)piperazin-1-yl)nicotinate] | 1.0-1.9
15 | 7.00 to 7.40 | ≤ 10 | CC1Oc2ccc(CN3CCN(c4ccc(C(=O)NCC5CC5)cn4)CC3)cc2NC1=O (stereo not drawn) [Compound 234, N-(Cyclopropylmethyl)-6-(4-((2-methyl-3-oxo-3,4-dihydro-2H-benzo[b][1,4]oxazin-6-yl)methyl)piperazin-1-yl)nicotinamide] | 1.0-1.9
16 | ≥ 7.50 | ≤ 10 | CNC(=O)c1ccc(N2CCN(Cc3ccc4c(c3)NC(=O)C(C)O4)CC2)nc1 (stereo not drawn) [Compound 235, N-Methyl-6-(4-((2-methyl-3-oxo-3,4-dihydro-2H-benzo[b][1,4]oxazin-6-yl)methyl)piperazin-1-yl)nicotinamide] | 2.0-9.9
17 | ≥ 7.50 | ≤ 10 | CCNC(=O)c1ccc(N2CCN(Cc3ccc4c(c3)NC(=O)C(C)O4)CC2)nc1 (stereo not drawn) [Compound 236, N-Ethyl-6-(4-((2-methyl-3-oxo-3,4-dihydro-2H-benzo[b][1,4]oxazin-6-yl)methyl)piperazin-1-yl)nicotinamide] | ≦0.9
18 | ≤ 6.90 | ≤ 10 | CCOC(=O)c1ccc(N2CCN(Cc3ccc4c(c3)NC(=O)C(C)O4)CC2)nc1 (stereo not drawn) [Compound 237, Ethyl 6-(4-((2-methyl-3-oxo-3,4-dihydro-2H-benzo[b][1,4]oxazin-6-yl)methyl)piperazin-1-yl)nicotinate] | ≦0.9
19 | 7.00 to 7.40 | 12.6 to 100 | CC(C)NC(=O)c1ccc(N2CCN(Cc3ccc4c(c3)NC(=O)C(C)O4)CC2)nc1 (stereo not drawn) [Compound 238, N-Isopropyl-6-(4-((2-methyl-3-oxo-3,4-dihydro-2H-benzo[b][1,4]oxazin-6-yl)methyl)piperazin-1-yl)nicotinamide] | 1.0-1.9
20 | ≤ 6.90 | 1260 to 10000 | CC1Oc2ccc(CN3Cc4ccc(NC(=O)C5CC5)cc4C3)cc2NC1=O (stereo not drawn) [Compound 243, N-(2-((2-Methyl-3-oxo-3,4-dihydro-2H-benzo[b][1,4]oxazin-6-yl)methyl)isoindolin-5-yl)cyclopropanecarboxamide] | ≦0.9
21 | ≥ 7.50 | ≤ 10 | Cc1cc(CN2CCN(c3ccc(C#N)cc3)CC2)cc2c1OC(C)C(=O)N2 (stereo not drawn) [Compound 253, 4-(4-((2,8-Dimethyl-3-oxo-3,4-dihydro-2H-benzo[b][1,4]oxazin-6-yl)methyl)piperazin-1-yl)benzonitrile] | 2.0-9.9
22 | ≥ 7.50 | 12.6 to 100 | Cc1cc(CN2CCN(c3ccc(C#N)cn3)CC2)cc2c1OC(C)C(=O)N2 (stereo not drawn) [Compound 254, 6-(4-((2,8-Dimethyl-3-oxo-3,4-dihydro-2H-benzo[b][1,4]oxazin-6-yl)methyl)piperazin-1-yl)nicotinonitrile] | 2.0-9.9
23 | 7.00 to 7.40 | 12.6 to 100 | CCOC(=O)c1ccc(N2CCN(Cc3cc(C)c4c(c3)NC(=O)C(C)O4)CC2)cc1 (stereo not drawn) [Compound 255, Ethyl 4-(4-((2,8-dimethyl-3-oxo-3,4-dihydro-2H-benzo[b][1,4]oxazin-6-yl)methyl)piperazin-1-yl)benzoate] | ≦0.9
24 | ≥ 7.50 | ≤ 10 | CNC(=O)c1ccc(N2CCN(Cc3cc(C)c4c(c3)NC(=O)C(C)O4)CC2)cc1 (stereo not drawn) [Compound 257, 4-(4-((2,8-Dimethyl-3-oxo-3,4-dihydro-2H-benzo[b][1,4]oxazin-6-yl)methyl)piperazin-1-yl)-N-methylbenzamide] | 2.0-9.9
25 | ≥ 7.50 | ≤ 10 | Cc1cc(CN2CCN(c3ccc(C(=O)NC4CC4)cc3)CC2)cc2c1OC(C)C(=O)N2 (stereo not drawn) [Compound 259, N-Cyclopropyl-4-(4-((2,8-dimethyl-3-oxo-3,4-dihydro-2H-benzo[b][1,4]oxazin-6-yl)methyl)piperazin-1-yl)benzamide] | ≧10.0
26 | 7.00 to 7.40 | ≤ 10 | CCNC(=O)c1ccc(N2CCN(Cc3cc(C)c4c(c3)NC(=O)C(C)O4)CC2)nc1 (stereo not drawn) [Compound 261, 6-(4-((2,8-Dimethyl-3-oxo-3,4-dihydro-2H-benzo[b][1,4]oxazin-6-yl)methyl)piperazin-1-yl)-N-ethylnicotinamide] | 2.0-9.9
27 | ≥ 7.50 | ≤ 10 | CC1Oc2c(F)cc(CN3CCN(c4ccc(C#N)cn4)CC3)cc2NC1=O (stereo not drawn) [Compound 267, 6-(4-((8-fluoro-2-methyl-3-oxo-3,4-dihydro-2H-benzo[b][1,4]oxazin-6-yl)methyl)piperazin-1-yl)nicotinonitrile] | 1.0-1.9
